Values of other authors in patent publication US20120315337A1, “MULTIPARTICULATE 5-HTP COMPOSITIONS AND RELATED METHODS” (priority 2011, published 2012).

Conditions: comparison of antidepressant drug fluoxamine with 5-HTP; background statement

Row | SMILES | efficacy in clinical trial
1 | COCCCC/C(=N\OCCN)c1ccc(C(F)(F)F)cc1 [fluoxamine] | equally effective
2 | N[C@@H](Cc1c[nH]c2ccc(O)cc12)C(=O)O [5-HTP, L-5-hydroxytryptophan] | equally effective
